# From PMC5681660, “Reduced hepatitis B and D viral entry using clinically applied drugs as novel inhibitors of the bile acid transporter NTCP” (Scientific Reports, 2017)
# Structures can show the parent of a compound that is named as a salt.
# Target: T1, human NTCP (Homo sapiens, UniProt Q14973)
# T1 sequence (Q14973 1-349): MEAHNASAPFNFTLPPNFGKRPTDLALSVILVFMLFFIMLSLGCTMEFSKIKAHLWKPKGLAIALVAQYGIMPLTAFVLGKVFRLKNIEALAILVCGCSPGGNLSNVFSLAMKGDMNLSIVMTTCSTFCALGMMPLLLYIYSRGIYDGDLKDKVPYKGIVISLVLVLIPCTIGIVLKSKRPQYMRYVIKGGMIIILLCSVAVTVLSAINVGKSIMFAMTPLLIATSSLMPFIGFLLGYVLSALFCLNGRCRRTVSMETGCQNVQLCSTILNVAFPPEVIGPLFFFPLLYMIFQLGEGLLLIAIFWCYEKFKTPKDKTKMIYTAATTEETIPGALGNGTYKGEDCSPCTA
# Assay: Screening taurocholate uptake assay (96-well, [14C]taurocholate, 10 µM drug)
# Conditions: for B-score functional assay: screening taurocholate uptake, 10 µM drug
# [1] = ranking over the functional and the binding screening assay
# [2] = combined ranking of functional and binding screening assays
Structure (SMILES),Ranking score [1],B-score functional assay,Ranking score [2],B-score functional assay (B-score)
O=C(C1CCCCC1)N1CC(=O)N2CCc3ccccc3C2C1 (stereo not shown) [Praziquantel],262.237,-0.749,,
CCOC(=O)O[C@]1(C(=O)COC(=O)CC)CC[C@H]2[C@@H]3CCC4=CC(=O)C=C[C@]4(C)[C@H]3[C@@H](O)C[C@@]21C [Prednicarbate],140.036,-1.448,,
C[C@]12C=CC(=O)C=C1CC[C@@H]1[C@@H]2[C@@H](O)C[C@@]2(C)[C@H]1CC[C@]2(O)C(=O)CO [Prednisolone],,-0.52,486.999,
CCCC(C(=O)OCCN(CC)CC)(c1ccccc1)c1ccccc1 [Proadifen hydrochloride],,-1.354,468.828,
CN1CCN(CCCN2c3ccccc3Sc3ccc(Cl)cc32)CC1 [Prochlorperazine dimaleate],89.1291,-4.76,,
OC(CCN1CCCC1)(c1ccccc1)C1CCCCC1 (stereo not shown) [Procyclidine hydrochloride],,-0.705,562.821,
CC(=O)[C@H]1CC[C@H]2[C@@H]3CCC4=CC(=O)CC[C@]4(C)[C@H]3CC[C@]12C [Progesterone],,0.628,609.007,
CCCN(CCC)C(=O)C(CCC(=O)O)NC(=O)c1ccccc1 (stereo not shown) [Proglumide],231.221,0.098,,
CC(C)[N+](C)(CCOC(=O)C1c2ccccc2Oc2ccccc21)C(C)C [Propantheline bromide],,-0.131,472.136,
CC[N+](C)(CC)CCC[n+]1c(-c2ccccc2)c2cc(N)ccc2c2ccc(N)cc21.[I-].[I-] [Propidium iodide],,-1.35,504.845,
CCCOc1cc(N)ccc1C(=O)OCCN(CC)CC [Propoxycaine hydrochloride],73.2735,-2.561,,
C[C@@H]1O[C@@H](O[C@@H]2C=C3CC[C@@H]4[C@H](CC[C@]5(C)[C@@H](c6ccc(=O)oc6)CC[C@]45O)[C@@]3(C)CC2)[C@H](O)[C@H](O)[C@H]1O [Proscillaridin A],183.761,-2.06,,
CN1CCCN=C1/C=C/c1cccs1.O=C(O)C(O)C(O)C(=O)O [Pyrantel tartrate],,-0.111,600.829,
NC(=O)c1cnccn1 [Pyrazinamide],244.119,0.065,,
CN(C)C(=O)Oc1ccc[n+](C)c1.[I-] [Pyridostigmine iodide],,,1177.01,1.154
CCc1nc(N)nc(N)c1-c1ccc(Cl)cc1 [Pyrimethamine],,,1154.81,2.36
CCC1(CC)C(=O)C=CNC1=O [Pyrithyldione],,0.404,558.14,
OCCOCCN1CCN(C2=Nc3ccccc3Sc3ccccc32)CC1 [Quetiapine hemifumarate],,-0.346,473.772,
CC(=O)SCC(Cc1ccccc1)C(=O)NCC(=O)OCc1ccccc1 (stereo not shown) [Racecadotril],264.726,-1.398,,
CNCC(O)c1ccc(O)c(O)c1 (stereo not shown) [Racepinephrine HCl],,-0.581,629.338,
COc1ccccc1OCC(O)CN1CCN(CC(=O)Nc2c(C)cccc2C)CC1 (stereo not shown) [Ranolazine],,1.748,603.017,
CCN1CCC[C@H]1CNC(=O)c1c(OC)ccc(Br)c1OC.Cl [Remoxipride Hydrochloride],,-0.058,496.085,
CCOc1cc(CC(=O)N[C@@H](CC(C)C)c2ccccc2N2CCCCC2)ccc1C(=O)O [Repaglinide],233.103,-2.984,,
CC1=C(/C=C/C(C)=C/C=C/C(C)=C/C(=O)O)C(C)(C)CCC1 [Retinoic acid],197.388,-0.152,,
CO[C@H]1/C=C/O[C@@]2(C)Oc3c(C)c(O)c4c(O)c(c(/C=N/N5CCN(C6CCCC6)CC5)c(O)c4c3C2=O)NC(=O)/C(C)=C\C=C\[C@H](C)[C@H](O)[C@@H](C)[C@@H](O)[C@@H](C)[C@H](OC(C)=O)[C@@H]1C [Rifapentine],220.209,0.477,,
CO[C@H]1/C=C/O[C@@]2(C)Oc3c(C)c(O)c4c(O)c(c5c(nc6cc(C)ccn65)c4c3C2=O)NC(=O)/C(C)=C\C=C\[C@H](C)[C@H](O)[C@@H](C)[C@@H](O)[C@@H](C)[C@H](OC(C)=O)[C@@H]1C [Rifaximin],,-0.408,627.999,
CCN(C)C(=O)Oc1cccc([C@H](C)N(C)C)c1 [Rivastigmine],,-0.006,642.937,

Structure (SMILES),Ranking score [1],B-score functional assay,Ranking score [2],B-score functional assay (B-score)
CS(=O)(=O)c1ccc(C2=C(c3ccccc3)C(=O)OC2)cc1 [Rofecoxib],212.386,1.027,,
CN(CCOc1ccc(CC2SC(=O)NC2=O)cc1)c1ccccn1.Cl (stereo not shown) [Rosiglitazone Hydrochloride],31.1127,-7.292,,
CC[C@H]1OC(=O)[C@H](C)[C@@H](O[C@H]2C[C@@](C)(OC)[C@@H](O)[C@H](C)O2)[C@H](C)[C@@H](O[C@@H]2O[C@H](C)C[C@H](N(C)C)[C@H]2O)[C@](C)(O)C[C@@H](C)/C(=N\OCOCCOC)[C@H](C)[C@@H](O)[C@]1(C)O [Roxithromycin],275.763,1.396,,
CN1CCN(c2c(F)cc3c(=O)c(C(=O)O)cn4c3c2SCC4)CC1 [Rufloxacin],,-0.276,471.137,
CC(C)(C)NCC(O)c1ccc(O)c(CO)c1 (stereo not shown) [Salbutamol],275.042,1.838,,
Br.C[N+]1([O-])[C@@H]2CC(OC(=O)[C@H](CO)c3ccccc3)C[C@H]1[C@@H]1O[C@@H]12 (stereo partly shown) [Scopolamin-N-oxide hydrobromide],208.216,-2.352,,
CN1[C@@H]2CC(OC(=O)[C@H](CO)c3ccccc3)C[C@H]1[C@@H]1O[C@@H]12.Cl (stereo partly shown) [Scopolamine hydrochloride],,0.343,577.314,
Cc1ncc([N+](=O)[O-])n1CC(C)O (stereo not shown) [Secnidazole],,-0.391,548.521,
C#CCN(C)[C@H](C)Cc1ccccc1 [Selegiline hydrochloride],,-1.141,462.99,
NCCc1c[nH]c2ccc(O)cc12 [Serotonin hydrochloride],107.778,0.952,,
CC(C)CC(N(C)C)C1(c2ccc(Cl)cc2)CCC1.Cl (stereo not shown) [Sibutramine HCl],211.232,-0.386,,
C[C@H](Cc1cc2c(c(C(N)=O)c1)N(CCCO)CC2)NCCOc1ccccc1OCC(F)(F)F [Silodosin],,1.072,510.413,
C[C@@H]1CN(c2c(F)c(N)c3c(=O)c(C(=O)O)cn(C4CC4)c3c2F)C[C@H](C)N1 [Sparfloxacin],231.849,-2.411,,
CN[C@@H]1[C@H](O)[C@H](NC)[C@H]2O[C@@]3(O)C(=O)C[C@@H](C)O[C@H]3O[C@@H]2[C@H]1O.Cl.Cl [Spectinomycin dihydrochloride],126.98,-0.865,,
O=C(CCCN1CCC2(CC1)C(=O)NCN2c1ccccc1)c1ccc(F)cc1 [Spiperone],,-0.689,571.731,
[H]/N=C(/N)N[C@H]1[C@H](O)[C@@H](O)[C@H](O[C@@H]2O[C@@H](C)[C@](O)(C=O)[C@H]2O[C@@H]2O[C@@H](CO)[C@H](O)[C@@H](O)[C@@H]2NC)[C@@H](N/C(N)=N\[H])[C@@H]1O [Streptomycin sulfate],115.983,1.326,,
O=C(O)CCC(=O)Nc1ccc(S(=O)(=O)Nc2nccs2)cc1 [Succinylsulfathiazole],258.147,-0.075,,
Nc1ccc(S(=O)(=O)NC(=O)c2ccccc2)cc1 [Sulfabenzamide],,0.164,563.848,
CC(=O)[N-]S(=O)(=O)c1ccc(N)cc1.O.[Na+] [Sulfacetamide sodic hydrate],277.153,-0.444,,
Nc1ccc(S(=O)(=O)Nc2ccc(Cl)nn2)cc1 [Sulfachloropyridazine],,0.615,530.669,
COc1cnc(NS(=O)(=O)c2ccc(N)cc2)nc1 [Sulfameter],,-1.201,466.613,
CC1=C(CC(=O)O)c2cc(F)ccc2/C1=C\c1ccc([S+](C)[O-])cc1 (stereo not shown) [Sulindac],109.727,-1.878,,
CC(C(=O)O)c1ccc(C(=O)c2cccs2)cc1 (stereo not shown) [Suprofen],,-0.917,554.797,
CCCCC1(COC(=O)CCC(=O)O)C(=O)N(c2ccccc2)N(c2ccccc2)C1=O [Suxibuzone],,,1138,1.433
C[C@]1(Cn2ccnn2)[C@H](C(=O)O)N2C(=O)C[C@H]2S1(=O)=O [Tazobactam],,2.889,613.948,
O=c1[nH]c(=O)n(C2CCCO2)cc1F (stereo not shown) [Tegafur],,-0.939,518.446,
